Measurements taken from patent US5525626A (priority 1989, dated 1996).

Assays:
Assay in all cases: 3H-thymidine assay
Format in all cases: cell-based
[1] = system: Tp 483 MG glioblastoma cells
[2] = system: Tp 410 N neuroblastoma cells; conditions: Homo sapiens, Neuroblastoma cell
Daudi leukemic cells = conditions: Homo sapiens
K-562 leukemic cells = conditions: Homo sapiens, K562
Method: (§1) The cell lines were cultivated as indicated in Example 1.
(§2) The antiproliferative effect of the 1,2-benzopyrone derivatives according to the invention on the tumor cell lines in each case was shown with the help of the ^3 H-thymidine insertion and with reference to growth curves.
(§3) In a 24-well-plate, in each case 10^4 cells of the line to be investigated were inoculated per well. Approximately 48 hours later the cells were half-confluent; the medium was then changed and replaced by a medium containing the active substance in question (cf Table 3). After a further 48 hours 0.25 μCi ^3 H-thymidine (Ammersham) was added to each well and the cells were incubated for a further 24 hours. Subsequently the cultures were washed twice with ice-cold PBS and the high-molecular-weight ^3 H-radioactivity was precipitated with 5% trichloroacetic acid for one hour at 4° C. After the washing of the cells in PBS the ^3 H-radioactivity was solubilized with 0.3M NaOH and measured in the counter. The growth-inhibition was determined by comparing the thymidine insertion of the cells treated with active substance with untreated cells.
(§4) The active substance concentration in each case was so chosen that ^3 H-thymidine insertion was 50% inhibited. The active substance concentrations used under this aspect for the active substances and cell lines in each case are given in table 4 below in μM/ml, […]

CAKI-2 cells = conditions: Homo sapiens, CAKI-2
Method: as §1, §2
as §3, with “After a further 48 hours 0.25 μCi ^3 H-thymidine (Ammersham) was added to each well and the cells were incubated for a further 24 hours.” left out
as §4

HCV cells = system: HCV cells
[3] = system: Z-R-75-1 breast cancer cells; conditions: Homo sapiens, ZR-75-1
[4] = system: GV-1 prostate carcinoma cells
G-361 melanoma cells = conditions: Homo sapiens, G-361
[5] = 1 μM/ml, read-out: 3H-thymidine insertion (%) of control
[6] = 2 μM/ml, read-out: 3H-thymidine insertion (%) of control
[7] = 4 μM/ml, read-out: 3H-thymidine insertion (%) of control
[8] = 8 μM/ml, read-out: 3H-thymidine insertion (%) of control
[9] = 16 μM/ml, read-out: 3H-thymidine insertion (%) of control
[10] = 25 μM/ml, read-out: 3H-thymidine insertion (%) of control
[11] = 50 μM/ml, read-out: 3H-thymidine insertion (%) of control
[12] = 100 μM/ml, read-out: 3H-thymidine insertion (%) of control
[13] = 250 μM/ml, read-out: 3H-thymidine insertion (%) of control
[14] = 500 μM/ml, read-out: 3H-thymidine insertion (%) of control
[15] = Table 4, read-out: active substance concentration at which 3H-thymidine insertion was 50% inhibited
[16] = 1 μM/ml, read-out: 3H-thymidine tracer (%) of control
[17] = 2 μM/ml, read-out: 3H-thymidine tracer (%) of control
[18] = 4 μM/ml, read-out: 3H-thymidine tracer (%) of control
[19] = 8 μM/ml, read-out: 3H-thymidine tracer (%) of control
[20] = 16 μM/ml, read-out: 3H-thymidine tracer (%) of control
[21] = 25 μM/ml, read-out: 3H-thymidine tracer (%) of control
[22] = 50 μM/ml, read-out: 3H-thymidine tracer (%) of control
[23] = 100 μM/ml, read-out: 3H-thymidine tracer (%) of control
[24] = 250 μM/ml, read-out: 3H-thymidine tracer (%) of control
[25] = 500 μM/ml, read-out: 3H-thymidine tracer (%) of control
[26] = Table 4, *: maximum usable dosage, no 50% inhibition, read-out: active substance concentration at which 3H-thymidine insertion was 50% inhibited

Compound: O=c1ccc2ccc(O)cc2o1 [7-OH-1,2-BP, 7-hydroxy-1,2-benzopyrone]
- activity at 1 µM [1, 5]: 97%
- activity at 2 µM [1, 6]: 95%
- activity at 4 µM [1, 7]: 89%
- activity at 8 µM [1, 8]: 81%
- activity at 16 µM [1, 9]: 69%
- activity at 25 µM [1, 10]: 66%
- activity at 50 µM [1, 11]: 39%
- activity at 100 µM [1, 12]: 32%
- activity at 250 µM [1, 13]: 27%
- activity at 500 µM [1, 14]: 25%
- IC50 [1, 15]: 25 µM
- activity at 1 µM [2, 5]: 96%
- activity at 2 µM [2, 6]: 91%
- activity at 4 µM [2, 7]: 80%
- activity at 8 µM [2, 8]: 73%
- activity at 16 µM [2, 9]: 67%
- activity at 25 µM [2, 10]: 50%
- activity at 50 µM [2, 11]: 48%
- activity at 100 µM [2, 12]: 42%
- activity at 250 µM [2, 13]: 36%
- activity at 500 µM [2, 14]: 21%
- IC50 [2, 15]: 25 µM
- activity at 1 µM (Daudi leukemic cells; [16]): 98%
- activity at 2 µM (Daudi leukemic cells; [17]): 89%
- activity at 4 µM (Daudi leukemic cells; [18]): 82%
- activity at 8 µM (Daudi leukemic cells; [19]): 76%
- activity at 16 µM (Daudi leukemic cells; [20]): 63%
- activity at 25 µM (Daudi leukemic cells; [21]): 54%
- activity at 50 µM (Daudi leukemic cells; [22]): 49%
- activity at 100 µM (Daudi leukemic cells; [23]): 38%
- activity at 250 µM (Daudi leukemic cells; [24]): 35%
- activity at 500 µM (Daudi leukemic cells; [25]): 28%
- IC50 (Daudi leukemic cells; [15]): 50 µM
- activity at 1 µM (K-562 leukemic cells; [16]): 100%
- activity at 2 µM (K-562 leukemic cells; [17]): 91%
- activity at 4 µM (K-562 leukemic cells; [18]): 84%
- activity at 8 µM (K-562 leukemic cells; [19]): 76%
- activity at 16 µM (K-562 leukemic cells; [20]): 67%
- activity at 25 µM (K-562 leukemic cells; [21]): 53%
- activity at 50 µM (K-562 leukemic cells; [22]): 47%
- activity at 100 µM (K-562 leukemic cells; [23]): 42%
- activity at 250 µM (K-562 leukemic cells; [24]): 39%
- activity at 500 µM (K-562 leukemic cells; [25]): 37%
- IC50 (K-562 leukemic cells; [15]): 50 µM
- activity at 1 µM (CAKI-2 cells; [16]): 95%
- activity at 2 µM (CAKI-2 cells; [17]): 92%
- activity at 4 µM (CAKI-2 cells; [18]): 88%
- activity at 8 µM (CAKI-2 cells; [19]): 77%
- activity at 16 µM (CAKI-2 cells; [20]): 71%
- activity at 25 µM (CAKI-2 cells; [21]): 65%
- activity at 50 µM (CAKI-2 cells; [22]): 54%
- activity at 100 µM (CAKI-2 cells; [23]): 46%
- activity at 150 µM (CAKI-2 cells; 150 μM/ml, read-out: 3H-thymidine tracer (%) of control): 39%
- activity at 500 µM (CAKI-2 cells; [25]): 35%
- IC50 (CAKI-2 cells; [26]): 75 µM
- activity at 1 µM (HCV cells; [16]): 98%
- activity at 2 µM (HCV cells; [17]): 95%
- activity at 4 µM (HCV cells; [18]): 88%
- activity at 8 µM (HCV cells; [19]): 82%
- activity at 16 µM (HCV cells; [20]): 74%
- activity at 25 µM (HCV cells; [21]): 69%
- activity at 50 µM (HCV cells; [22]): 63%
- activity at 250 µM (HCV cells; [24]): 57%
- activity at 500 µM (HCV cells; [25]): 50%
- IC50 (HCV cells; [26]): 500 µM
- activity at 1 µM [3, 16]: 96%
- activity at 2 µM [3, 17]: 91%
- activity at 4 µM [3, 18]: 82%
- activity at 8 µM [3, 19]: 73%
- activity at 16 µM [3, 20]: 65%
- activity at 25 µM [3, 21]: 55%
- activity at 50 µM [3, 22]: 49%
- activity at 100 µM [3, 23]: 43%
- activity at 250 µM [3, 24]: 39%
- activity at 500 µM [3, 25]: 27%
- IC50 [3, 26]: 50 µM
- activity at 1 µM [4, 16]: 100%
- activity at 2 µM [4, 17]: 89%
- activity at 4 µM [4, 18]: 83%
- activity at 8 µM [4, 19]: 75%
- activity at 16 µM [4, 20]: 69%
- activity at 25 µM [4, 21]: 63%
- activity at 50 µM [4, 22]: 51%
- activity at 100 µM [4, 23]: 39%
- activity at 250 µM [4, 24]: 36%
- activity at 500 µM [4, 25]: 27%
- IC50 [4, 15]: 75 µM
- activity at 1 µM (G-361 melanoma cells; [16]): 94%
- activity at 2 µM (G-361 melanoma cells; [17]): 91%
- activity at 4 µM (G-361 melanoma cells; [18]): 77%
- activity at 8 µM (G-361 melanoma cells; [19]): 77%
- activity at 16 µM (G-361 melanoma cells; [20]): 74%
- activity at 25 µM (G-361 melanoma cells; [21]): 68%
- activity at 50 µM (G-361 melanoma cells; [22]): 58%
- activity at 100 µM (G-361 melanoma cells; [23]): 53%
- activity at 250 µM (G-361 melanoma cells; [24]): 42%
- activity at 500 µM (G-361 melanoma cells; [25]): 38%
- IC50 (G-361 melanoma cells; [26]): 125 µM
